We go through one molecule from publication PMC7616177, “From structure to clinic: Design of a muscarinic M1 receptor agonist with the potential to treat Alzheimer’s disease” (Cell, 2021).

For data set [1], the system named is dogs. In words: Safety pharmacology and toxicology clinical signs, dog.
In data set [2] the target is T1, M3-receptor (Homo sapiens, UniProt P20309).
T1 construct: expressed in transfected cells
In words: [3H]-NMS equilibrium radioligand binding, M3. The procedure: (§1) Non-specific binding (NSB) was determined in the presence of 1 μM atropine). Reactions were terminated by rapid filtration onto GF/B filter paper (Whatman, Maidstone, UK) and three washes with 3 mL ice-cold 0.9% NaCl using a Brandel harvester (M-24TI; Brandel, Fort Lauderdale, FL). Membrane bound radioactivity was determined by liquid scintillation (Ultima Gold; PerkinElmer) counting.
(§2) Data was analyzed using PRISM (GraphPad). For saturation binding, non-specific and total binding data were analyzed to a one site binding model. DPM was converted to fmol/mg to compare across constructs. […] […] The Cheng Prusoff equation was used to estimate pKi ([Cheng and Prusoff, 1973]).

Data set [3] deals with Wistar rats. In words: Novel object recognition. In kind it is in vivo, rat. How it is done: Male adult Wistar rats (Harlan, UK; approximately 11 weeks of age) were handled for two days prior to the experiment. […] Donepezil (0.1 mg/kg) and galanthamine (3 mg/kg) were administered via intraperitoneal injection (in saline) 60 min prior to training. Following a 10-min habituation period, each rat was placed into the test arena comprising an open-field arena in the presence of two identical plastic shapes and allowed to explore for 5 min. The rat was then returned to its home cage. After 24 hours, the rat was returned to the test arena in the presence of one familiar object, and one novel object. The time exploring each object was recorded using image analysis software (Ethovision XT, Noldus, UK).

Data set [4] in a line: Rat CNS distribution and estimated unbound brain exposure. In kind it is in vivo.
Data set [5] relates to rats. In words: Safety pharmacology and toxicology clinical signs, rat. In kind it is in vivo. The source says: The rat and dog were appropriate species in which to conduct nonclinical safety evaluation and HTL9936. Male and female rates of the RccHan: WIST strain were obtained from Harlan, Bicester, UK. and the animals were approximately seven to eight weeks old at the start of dosing. Throughout the study the animals had access ad libitum to SQC Rat and Mouse Maintenance Diet No 1, Expanded, (Special Diets Services Ltd, Witham, UK). […] The temperature and relative humidity ranges were maintained in the specified ranges of 20 to 24°C and 45 to 65%, respectively.

Data set [6] addresses T1, M3-receptor. Kind of data set: M3-receptor functional agonist assay. In kind it is cell-based. How it is done:
(§3) Functional assays were performed using the Alphascreen Surefire phopho-ERK1/2 assay. […] Once adhered, cells were serum starved overnight. Agonist stimulation was performed by the addition of […] agonist to the cells for a pre-optimized 5 min period (37°C). Media was removed and 50 μl of lysis buffer added. After 15 min a 4 μl sample was transferred to a 384-well plate and 7 μl of detection mixture added.

The subject of data set [7] is rats. In words: Cardiovascular telemetry in rats. Conditions: telemetered rats.
Data set [8] has as its target T2, human M1 receptor (Homo sapiens, UniProt P11229).
T2 construct: expressed in transfected cells
T2 sequence (P11229 1-460): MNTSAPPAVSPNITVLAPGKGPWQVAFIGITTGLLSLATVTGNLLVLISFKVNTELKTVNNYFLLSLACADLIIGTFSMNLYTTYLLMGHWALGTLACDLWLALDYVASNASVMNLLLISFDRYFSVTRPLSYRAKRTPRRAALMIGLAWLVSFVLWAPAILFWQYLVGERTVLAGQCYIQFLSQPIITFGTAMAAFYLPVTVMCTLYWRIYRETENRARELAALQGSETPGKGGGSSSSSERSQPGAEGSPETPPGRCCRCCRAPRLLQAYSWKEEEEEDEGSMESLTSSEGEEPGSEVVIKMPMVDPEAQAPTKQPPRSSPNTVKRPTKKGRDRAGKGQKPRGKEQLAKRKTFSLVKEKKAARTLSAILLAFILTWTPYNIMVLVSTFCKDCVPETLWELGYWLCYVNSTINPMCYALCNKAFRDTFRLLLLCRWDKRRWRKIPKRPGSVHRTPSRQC
Kind of data set: [3H]-NMS equilibrium radioligand binding, M1. How it is done: as §1, §2

Data set [9] concerns the target T2, human M1 receptor. In words: Label-free dynamic mass redistribution in CHO cells overexpressing human M1-receptor. The format is cell-based.
The target of data set [10] is T3, M4-receptor (Homo sapiens, UniProt P08173).
T3 sequence (P08173 1-479): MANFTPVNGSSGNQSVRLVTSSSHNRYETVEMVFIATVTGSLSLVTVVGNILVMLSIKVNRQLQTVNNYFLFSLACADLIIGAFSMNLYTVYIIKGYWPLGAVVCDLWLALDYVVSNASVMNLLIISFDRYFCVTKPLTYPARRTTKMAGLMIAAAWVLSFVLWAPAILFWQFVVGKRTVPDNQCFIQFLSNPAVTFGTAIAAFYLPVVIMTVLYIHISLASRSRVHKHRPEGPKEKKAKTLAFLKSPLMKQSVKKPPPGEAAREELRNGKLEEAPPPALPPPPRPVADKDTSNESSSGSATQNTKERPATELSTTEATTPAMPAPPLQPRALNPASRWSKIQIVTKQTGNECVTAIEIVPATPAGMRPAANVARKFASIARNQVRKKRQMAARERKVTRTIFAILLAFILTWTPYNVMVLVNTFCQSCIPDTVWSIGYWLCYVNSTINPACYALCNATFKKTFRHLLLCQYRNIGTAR
Kind of data set: M4-receptor functional agonist assay. In kind it is cell-based. More on the design: expressed in transfected cells. The procedure: as §3

Data set [11] relates to aged beagle dogs. Kind of data set: Delayed non-matching to position (DNMP) in aged beagle dogs. As to conditions: aged beagles. In kind it is in vivo, dog. The procedure:
Animals were acclimatised in the testing facility for at least 3 months. During baseline days (days −12 to −8), 50 dogs underwent DNMP testing once daily using delays of 20 and 90 s equally dispersed over 12 trials per session.
These 40 subjects were tested on the DNMP using delays of 5, 55 and 105 s equally dispersed over 18 trials per session over five once-daily sessions (days −6 to −2). Therefore, baseline testing was conducted for a total of 10 days.
These dogs were then allocated into 5 groups, balanced for mean baseline performance accuracy at the longest delays (n = 8 per group). […] Daily treatment administration began on day 0, and dogs were tested once daily on the DNMP at the same delays employed at baseline for a minimum of 10 days. Each test consisted of two phases; in phase one, the dog is presented with an object over one of the three food wells. After the dog moves the object and obtains the food reward beneath, the tray is removed from the dog’s sight and the delay is initiated. The second phase occurs after the delay and consists of presenting the dog with two identical objects to that used in the first phase. One is in the same position as the first phase and the other covers a food reward in one of the two remaining food wells.

T1 sequence (P20309 whole entry): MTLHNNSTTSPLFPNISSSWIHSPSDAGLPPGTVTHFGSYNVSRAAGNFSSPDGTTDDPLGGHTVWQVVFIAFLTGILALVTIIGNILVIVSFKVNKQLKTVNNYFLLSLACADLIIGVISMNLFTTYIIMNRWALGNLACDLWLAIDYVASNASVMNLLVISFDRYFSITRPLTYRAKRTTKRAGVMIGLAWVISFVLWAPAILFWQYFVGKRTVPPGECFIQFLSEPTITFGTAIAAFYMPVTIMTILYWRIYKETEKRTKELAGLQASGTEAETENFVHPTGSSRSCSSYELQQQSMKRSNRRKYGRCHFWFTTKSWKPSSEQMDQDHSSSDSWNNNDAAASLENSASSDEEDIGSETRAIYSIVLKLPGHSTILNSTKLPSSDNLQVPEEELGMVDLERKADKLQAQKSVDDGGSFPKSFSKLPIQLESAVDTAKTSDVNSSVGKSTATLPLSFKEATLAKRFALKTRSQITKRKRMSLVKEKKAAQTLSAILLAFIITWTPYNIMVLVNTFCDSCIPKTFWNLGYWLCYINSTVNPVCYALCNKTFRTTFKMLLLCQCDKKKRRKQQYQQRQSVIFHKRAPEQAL

As usually defined, the EC50 is the midpoint of the concentration-response curve. Low readings indicate higher potency in that assay, high ones lower potency in that assay. Usually Ki stands for the equilibrium dissociation constant of an inhibitor or competing ligand from its target. Read a high Ki as weaker binding. On to `CCOC(=O)N1CCC[C@H](N2CCC(C(=O)NC3(C)CCC3)CC2)CC1` [HTL9936, ethyl (S)-4-(4-((1-methylcyclobutyl)carbamoyl)piperidin-1-yl)azepane-1-carboxylate], for which, in data set [1], the “Cu,pl above which clinical signs were observed” value was 283 nM and the “Plasma exposure above which salivation, vomiting, lacrimation were observed” value is reported as “exceeded 157 ng/mL”. Further, the “Binding to the M3-receptor” value in data set [2] is “no detectable binding”. The Effective dose in data set [3] (rat novel object recognition, p.o.) worked out at 10 mg/kg. Also, the “Effect compared with positive controls donepezil and galantamine” value in data set [3] (rat, 10 mg/kg p.o.) is listed as “significantly better than the positive controls”. Further, in data set [4] (1 mg/kg intravenous and 10 mg/kg oral), the “Distribution into the CNS” value is listed as “significant distribution into the CNS”. In data set [4] (3 mg/kg p.o.), the “Estimated unbound drug in the brain Cu,br” value (“Estimated unbound drug” below) is listed as 79 nM. Besides, in data set [4] (10 mg/kg p.o.), the “Estimated unbound drug” value was 262 nM. Moreover, the “Estimated unbound drug” value in data set [4] (30 mg/kg p.o.) is 786 nM. In [5], the “Cu,pl without cholinergic clinical signs” value was 1,372 nM and the “Plasma exposure without cholinergic clinical signs” value is reported as “up to 732 ng/mL”. In data set [6], the EC50 was greater than 20 µM and the M3-receptor agonist activity entry is listed as “no detectable agonism”. The “Cardiovascular effects at 3 mg/kg” value in [7] (3 mg/kg oral) is “No significant effects”. Further, the “Heart rate and mean arterial blood pressure” value in [7] (oral 3, 10, 30 and 100 mg/kg, 5 h post-dose average) was “dose-dependent increase in heart rate and mean arterial blood pressure”. The same molecule gave an inhibition constant Ki in data set [8] of 20 µM. For the same molecule, the EC50 in data set [9] stood at 79 nM. In addition, in data set [10], the 50% effective concentration (EC50) came to 398 nM and the M4-receptor agonist activity result is on record as “partial agonist activity”. Moreover, in [11] (0.3 mg/kg and 1 mg/kg s.c.), the “Visual-spatial memory (DNMP performance)” value was “Significant improvements in visual-spatial memory”. Besides, in data set [11] (1 mg/kg s.c.), the “Effect compared with donepezil” value is on record as “equivalent to that of donepezil”.
